Data published in the NIST ThermoML archive (doi:10.1016/j.jct.2011.01.014).
± gives the expanded uncertainty stated by the source.

Assay: xn = mol fraction of the nth substance listed
Conditions: 101 kPa, Liquid; for mass density: Vibrating tube method; for speed of sound: sound velocity cell

CC(=O)[O-].[NH3+]CCO [2-hydroxyethylammonium acetate] + CO
Conditions	mass density [kg/m3]	speed of sound [m/s]
288.15 K, x1 = 0.0492	850.323 ± 1	1214.8 ± 1.9
288.15 K, x1 = 0.0951	891.619 ± 0.73	1276.8 ± 1.7
288.15 K, x1 = 0.1987	958.564 ± 0.61	1390.3 ± 1.7
288.15 K, x1 = 0.29	1002.52 ± 0.52	1476.1 ± 1.8
288.15 K, x1 = 0.3786	1034.79 ± 0.56	1545.4 ± 1.9
288.15 K, x1 = 0.4825	1066.13 ± 0.73	1618.4 ± 2
288.15 K, x1 = 0.6007	1093.45 ± 1	1688 ± 2.3
288.15 K, x1 = 0.6711	1107.68 ± 1.2	1725.1 ± 2.4
288.15 K, x1 = 0.7797	1126.68 ± 1.6	1740.8 ± 2.7
288.15 K, x1 = 0.8297	1134.06 ± 1.8	1797.8 ± 2.8
288.15 K, x1 = 0.9328	1147.97 ± 2.2	1795.3 ± 3
288.15 K, x1 = 1	1154.7 ± 2.6	1817.2 ± 3.2
290.65 K, x1 = 0.0492	848.152 ± 1	1207.2 ± 1.9
290.65 K, x1 = 0.0951	889.567 ± 0.72	1269.4 ± 1.7
290.65 K, x1 = 0.1987	956.698 ± 0.61	1383.4 ± 1.7
290.65 K, x1 = 0.29	1000.78 ± 0.52	1469.5 ± 1.8
290.65 K, x1 = 0.3786	1033.16 ± 0.56	1538.9 ± 1.9
290.65 K, x1 = 0.4825	1064.58 ± 0.73	1612.3 ± 2
290.65 K, x1 = 0.6007	1091.92 ± 1	1681.6 ± 2.3
290.65 K, x1 = 0.6711	1106.19 ± 1.2	1718.6 ± 2.4
290.65 K, x1 = 0.7797	1125.18 ± 1.6	1734.6 ± 2.6
290.65 K, x1 = 0.8297	1132.65 ± 1.8	1790.7 ± 2.8
290.65 K, x1 = 0.9328	1146.53 ± 2.2	1787.9 ± 3
290.65 K, x1 = 1	1153.28 ± 2.6	1810 ± 3.2
293.15 K, x1 = 0.0492	845.97 ± 1	1199.8 ± 1.9
293.15 K, x1 = 0.0951	887.505 ± 0.72	1262.1 ± 1.7
293.15 K, x1 = 0.1987	954.823 ± 0.61	1376.3 ± 1.7
293.15 K, x1 = 0.29	999.035 ± 0.52	1462.8 ± 1.8
293.15 K, x1 = 0.3786	1031.5 ± 0.56	1532.4 ± 1.9
293.15 K, x1 = 0.4825	1063.02 ± 0.72	1606.2 ± 2
293.15 K, x1 = 0.6007	1090.45 ± 1	1675.2 ± 2.3
293.15 K, x1 = 0.6711	1104.7 ± 1.2	1712.1 ± 2.4
293.15 K, x1 = 0.7797	1123.69 ± 1.6	1728.6 ± 2.6
293.15 K, x1 = 0.8297	1131.24 ± 1.8	1784 ± 2.8
293.15 K, x1 = 0.9328	1145.1 ± 2.2	1781.1 ± 3
293.15 K, x1 = 1	1151.87 ± 2.5	1803.2 ± 3.2
295.65 K, x1 = 0.0492	843.786 ± 1	1192.1 ± 1.9
295.65 K, x1 = 0.0951	885.441 ± 0.72	1254.6 ± 1.7
295.65 K, x1 = 0.1987	952.95 ± 0.61	1369.2 ± 1.7
295.65 K, x1 = 0.29	997.283 ± 0.52	1456 ± 1.8
295.65 K, x1 = 0.3786	1029.84 ± 0.56	1525.9 ± 1.9
295.65 K, x1 = 0.4825	1061.45 ± 0.72	1600 ± 2
295.65 K, x1 = 0.6007	1088.98 ± 1	1669.1 ± 2.3
295.65 K, x1 = 0.6711	1103.21 ± 1.2	1705.8 ± 2.4
295.65 K, x1 = 0.7797	1122.2 ± 1.6	1722.7 ± 2.6
295.65 K, x1 = 0.8297	1129.83 ± 1.8	1777.5 ± 2.8
295.65 K, x1 = 0.9328	1143.67 ± 2.2	1774.5 ± 3
295.65 K, x1 = 1	1150.45 ± 2.5	1796.8 ± 3.2
298.15 K, x1 = 0.0492	841.599 ± 1	1184.3 ± 1.9
298.15 K, x1 = 0.0951	883.376 ± 0.72	1247 ± 1.7
298.15 K, x1 = 0.1987	951.074 ± 0.61	1362.2 ± 1.7
298.15 K, x1 = 0.29	995.529 ± 0.52	1449.3 ± 1.8
298.15 K, x1 = 0.3786	1028.18 ± 0.56	1519.5 ± 1.9
298.15 K, x1 = 0.4825	1059.89 ± 0.72	1593.9 ± 2
298.15 K, x1 = 0.6007	1087.51 ± 1	1663 ± 2.3
298.15 K, x1 = 0.6711	1101.72 ± 1.2	1699.7 ± 2.4
298.15 K, x1 = 0.7797	1120.71 ± 1.6	1717 ± 2.6
298.15 K, x1 = 0.8297	1128.41 ± 1.8	1771.3 ± 2.8
298.15 K, x1 = 0.9328	1142.24 ± 2.2	1768.2 ± 3
298.15 K, x1 = 1	1149.04 ± 2.5	1790.7 ± 3.2
300.65 K, x1 = 0.0492	839.407 ± 1	1176.5 ± 1.9
300.65 K, x1 = 0.0951	881.305 ± 0.73	1239.5 ± 1.7
300.65 K, x1 = 0.1987	949.197 ± 0.61	1355.1 ± 1.7
300.65 K, x1 = 0.29	993.775 ± 0.52	1442.7 ± 1.8
300.65 K, x1 = 0.3786	1026.52 ± 0.56	1513.1 ± 1.9
300.65 K, x1 = 0.4825	1058.32 ± 0.72	1587.8 ± 2
300.65 K, x1 = 0.6007	1086.03 ± 1	1657 ± 2.3
300.65 K, x1 = 0.6711	1100.3 ± 1.2	1693.7 ± 2.4
300.65 K, x1 = 0.7797	1119.26 ± 1.6	1711.3 ± 2.6
300.65 K, x1 = 0.8297	1127 ± 1.8	1765.3 ± 2.8
300.65 K, x1 = 0.9328	1140.81 ± 2.2	1762.1 ± 3
300.65 K, x1 = 1	1147.63 ± 2.5	1784.8 ± 3.2
303.15 K, x1 = 0.0492	837.209 ± 1	1168.8 ± 1.9
303.15 K, x1 = 0.0951	879.233 ± 0.73	1232 ± 1.7
303.15 K, x1 = 0.1987	947.318 ± 0.62	1348.1 ± 1.7
303.15 K, x1 = 0.29	992.018 ± 0.52	1436 ± 1.8
303.15 K, x1 = 0.3786	1024.86 ± 0.56	1506.7 ± 1.9
303.15 K, x1 = 0.4825	1056.74 ± 0.72	1581.7 ± 2
303.15 K, x1 = 0.6007	1084.54 ± 1	1651 ± 2.3
303.15 K, x1 = 0.6711	1098.87 ± 1.2	1687.7 ± 2.4
303.15 K, x1 = 0.7797	1117.84 ± 1.6	1705.7 ± 2.6
303.15 K, x1 = 0.8297	1125.59 ± 1.8	1759.4 ± 2.8
303.15 K, x1 = 0.9328	1139.38 ± 2.2	1756.3 ± 3
303.15 K, x1 = 1	1146.22 ± 2.5	1779 ± 3.2
305.65 K, x1 = 0.0492	835.006 ± 1	–
305.65 K, x1 = 0.0951	877.153 ± 0.73	–
305.65 K, x1 = 0.1987	945.436 ± 0.62	–
305.65 K, x1 = 0.29	990.259 ± 0.52	–
305.65 K, x1 = 0.3786	1023.19 ± 0.55	–
305.65 K, x1 = 0.4825	1055.17 ± 0.71	–
305.65 K, x1 = 0.6007	1083.06 ± 1	–
305.65 K, x1 = 0.6711	1097.42 ± 1.2	–
305.65 K, x1 = 0.7797	1116.4 ± 1.6	–
305.65 K, x1 = 0.8297	1124.17 ± 1.8	–
305.65 K, x1 = 0.9328	1137.95 ± 2.2	–
305.65 K, x1 = 1	1144.8 ± 2.5	–
